Assay results reported in patent publication US7943551B2, “3-cyclopropyl-4-(3-thiobenzoyl) pyrazoles and their use as herbicides” (Bayer Cropscience AG, priority 2007, dated 2011).

Key:
Type in all cases: in vivo
[1] = test system: Alopecurus myosuroides; assay: Post-emergence herbicidal action; details: 80 g of a.i./ha
Protocol: (§1) Seeds of mono- and dicotyledonous harmful plants are placed in sandy loam in cardboard pots, covered with soil and grown in the greenhouse under good growth conditions. Two to three weeks after sowing, the test plants are treated at the three-leaf stage. The compounds according to the invention, which are formulated as wettable powders or as emulsion concentrates, are sprayed at an application rate of 600 to 800 l of water/ha (converted) in a dosage of 80 grams per hectare onto the surface of the green plant parts. The visual scoring of the damage to the harmful plants is carried out 3-4 weeks after the treatment. Here, the compounds of Nos. 1-39, 1-40, 1-1382 and 1-2091 show an activity of at least 90% against Echinochloa crus galli. The compounds of Nos. 1-3, 1-44 and 1-2091 shown an activity of at least 90% against Abutilon theophrasti. The compounds of Nos. 1-39, 1-40 and 1-1382 show an activity of at least 90% against Veronica persica. The compounds of Nos. 1-3, 1-38, 1-39, 1-1406 and 1-1407 show an activity of at least 90% against Stellaria media.
(§2) The comparative tests of Tables 1 to 24 below show the superiority of the compounds according to the invention over the compounds known from the prior art.
(§3) • ABUTH Abutilon theophrasti ALOMY Alopecurus myosuroides • AMARE Amaranthus retroflexus AVEFA Avena fatua • CHEAL Chenopodium album ECHCG Echinochloa crus galli • GALAP Galium aparine LOLMU Lolium multiflorum • MATIN Matricaria inodora PHBPU Pharbitis purpureum • POLCO Fallopia convolvulus STEME Stellaria media • VERPE Veronica persica VIOTR Viola tricolor • XANST Xanthium strumarium Crop Plants • GLXMA Glycine max (soybeans) TRZAS Triticum aestivum (wheat) • ZEAMX Zea mays (corn)

[2] = test system: Avena fatua; assay: Post-emergence herbicidal action; details: 80 g of a.i./ha
Protocol: as §1, §2, §3

[3] = test system: Lolium multiflorum; assay: Post-emergence herbicidal action; details: 80 g of a.i./ha
Protocol: as §1, §2, §3

[4] = test system: Echinochloa crus galli; assay: Post-emergence herbicidal action; details: 80 g of a.i./ha, visual scoring 3-4 weeks after treatment, read-out: Herbicidal activity in % against ECHCG
Protocol: as §1, §2, §3

[5] = test system: Abutilon theophrasti; assay: Post-emergence herbicidal action; details: Abutilon theophrasti, 80 g of a.i./ha, visual scoring 3-4 weeks after treatment, read-out: Herbicidal activity in % against ABUTH
Protocol: as §1, with “The compounds according to the invention, which are formulated as wettable powders or as emulsion concentrates, are sprayed at an application rate of 600 to 800 l of water/ha (converted) in a dosage of 80 grams per hectare onto the surface of the green plant parts.” left out
as §2, §3

[6] = test system: Glycine max (soybeans); assay: Pre-emergence damage of crop plants; details: 320 g of a.i./ha, crop plant soybeans
Excerpt: (§4) Seeds or rhizome pieces of mono- and dicotyledonous harmful plants are placed in sandy loam in pots of a diameter of 9 to 13 cm and covered with soil. The herbicides, formulated as emulsifiable concentrates or dusts, are applied to the surface of the covering soil in the form of aqueous dispersions or suspensions or emulsions at an application rate of 300 to 800 l of water/ha (converted), at a dosage of 320 grams per hectare. For further cultivation of the plants, the pots are then kept in a greenhouse under optimum conditions. The visual scoring of the damage to the harmful plants is carried out 3-4 weeks after the treatment. Here, the compounds of Nos. 1-3, 1-15, 1-44 and 1-1407 show an activity of at least 90% against Echinochloa crus galli. The compounds of Nos. 1-15, 1-45, 1-1407 and 1-1419 show an activity of at least 90% against Abutilon theophrasti. The compounds of Nos. 1-3, 1-45, 1-1406 and 1-1418 show an activity of at least 90% against Amaranthus retroflexus. The compounds of Nos. 1-44, 1-1406, 1-1407 and 1-1419 show an activity of at least 90% against Stellaria media.
as §2, §3

[7] = test system: Triticum aestivum (wheat); assay: Pre-emergence damage of crop plants; details: 320 g of a.i./ha, crop plant wheat
Excerpt: as §4, §2, §3

[8] = test system: Galium aparine; assay: Pre-emergence herbicidal action; details: 320 g of a.i./ha
Excerpt: as §4, §2, §3

[9] = test system: Chenopodium album; assay: Pre-emergence herbicidal action; details: 320 g of a.i./ha
Excerpt: as §4, §2, §3

Structure (SMILES) | Herbicidal activity in % against ALOMY [1] | Herbicidal activity in % against AVEFA [2] | Herbicidal activity in % against LOLMU [3] | pest or weed control at 80 g/ha [4] | pest or weed control at 80 g/ha [5] | Damage to GLXMA [6] | Damage to TRZAS [7] | Herbicidal activity in % GALAP [8] | Herbicidal activity in % CHEAL [9]
Cn1nc(C2CC2)c(C(=O)c2ccc(Cl)c(S(C)(=O)=O)c2Cl)c1O [drawing 56, reference compound] | 20% | 20% | 20% | 30% | 60% |  |  |  | 
Cn1nc(C2CC2)c(C(=O)c2ccc(Cl)c(S(=O)(=O)CC3CC3)c2Cl)c1O [drawing 55] | 70% | 50% | 60% | 90% | 70% |  |  |  | 
CCS(=O)(=O)c1c(S(C)(=O)=O)ccc(C(=O)c2c(C3CC3)nn(C)c2O)c1C [drawing 38, reference compound] |  |  |  |  |  | 50 | 50 | 90% | 90%
